# Test results taken from patent US12077503B2, “Substituted cyclic amides and their use as herbicides” (FMC CORPORATION, priority 2015, dated 2024).
# Legend:
# Format in all cases: in vivo
# [1] = test system: pigweed (Amaranthus retroflexus); experiment: Test A postemergence; conditions: Amaranthus retroflexus, post-emergence, 240 h, 125 g ai/ha, Postemergence; visual injury after approximately 10 d; 0 to 100 scale where 0 is no effect and 100 is complete control; read-out: Plant response rating, Pigweed
# Procedure, shortened: (§1)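 Visual injury scores from 0, no effect, to 100, complete control, were assigned versus untreated controls roughly 10 d after treatment in the greenhouse. Test chemicals, formulated with surfactant in a non-phytotoxic solvent, were applied to planted seeds as a preemergence soil spray or postemergence to one- to two-leaf plants 2 to 10 cm tall, in loam–sand soil.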
# [2] = test system: ragweed (common ragweed, Ambrosia elatior); experiment: Test A postemergence; conditions: Ambrosia artemisiifolia, post-emergence, 240 h, 125 g ai/ha, Postemergence; visual injury after approximately 10 d; 0 to 100 scale where 0 is no effect and 100 is complete control; read-out: Plant response rating, Ragweed
# Procedure, shortened: as §1
# [3] = test system: barnyardgrass (Echinochloa crus-galli); experiment: Test A postemergence; conditions: Echinochloa crus-galli, post-emergence, 240 h, 125 g ai/ha, Postemergence; visual injury after approximately 10 d; 0 to 100 scale where 0 is no effect and 100 is complete control; read-out: Plant response rating, Barnyardgrass
# Procedure, shortened: as §1
# [4] = test system: blackgrass (Alopecurus myosuroides); experiment: Test A postemergence; conditions: Alopecurus myosuroides, post-emergence, 240 h, 125 g ai/ha, Postemergence; visual injury after approximately 10 d; 0 to 100 scale where 0 is no effect and 100 is complete control; read-out: Plant response rating, Blackgrass
# Procedure, shortened: as §1
# [5] = test system: giant foxtail (Setaria faberii); experiment: Test A postemergence; conditions: Setaria faberi, post-emergence, 240 h, 125 g ai/ha, Postemergence; visual injury after approximately 10 d; 0 to 100 scale where 0 is no effect and 100 is complete control; read-out: Plant response rating, Foxtail, Giant
# Procedure, shortened: as §1
# [6] = test system: Galium (catchweed bedstraw, Galium aparine); experiment: Test A postemergence; conditions: Galium, post-emergence, 240 h, 125 g ai/ha, Postemergence; visual injury after approximately 10 d; 0 to 100 scale where 0 is no effect and 100 is complete control; read-out: Plant response rating, Galium
# Procedure, shortened: as §1
# Kochia (Kochia scoparia) [7] = experiment: Test A postemergence; conditions: Bassia scoparia, post-emergence, 240 h, 125 g ai/ha, Postemergence; visual injury after approximately 10 d; 0 to 100 scale where 0 is no effect and 100 is complete control; read-out: Plant response rating, Kochia
# Procedure, shortened: as §1
# [8] = test system: wheat (Triticum aestivum); experiment: Test A postemergence; conditions: Triticum aestivum, post-emergence, 240 h, 125 g ai/ha, Postemergence; visual injury after approximately 10 d; 0 to 100 scale where 0 is no effect and 100 is complete control; read-out: Plant response rating, Wheat
# Procedure, shortened: as §1
# corn (Zea mays) = experiment: Test A postemergence; conditions: Zea mays, post-emergence, 240 h, 125 g ai/ha, Postemergence; visual injury after approximately 10 d; 0 to 100 scale where 0 is no effect and 100 is complete control
# Procedure, shortened: as §1
# [9] = test system: ryegrass, Italian (Italian ryegrass, Lolium multiflorum); experiment: Test A postemergence; conditions: Lolium multiflorum, post-emergence, 240 h, 125 g ai/ha, Postemergence; visual injury after approximately 10 d; 0 to 100 scale where 0 is no effect and 100 is complete control; read-out: Plant response rating, Ryegrass, Italian
# Procedure, shortened: as §1
# [10] = test system: pigweed (Amaranthus retroflexus); experiment: Test A preemergence; conditions: Amaranthus retroflexus, pre-emergence, 240 h
# [11] = test system: ragweed (common ragweed, Ambrosia elatior); experiment: Test A preemergence; conditions: Ambrosia artemisiifolia, pre-emergence, 240 h
# Procedure, shortened: as §1
# [12] = test system: barnyardgrass (Echinochloa crus-galli); experiment: Test A preemergence; conditions: Echinochloa crus-galli, pre-emergence, 240 h
# Procedure, shortened: as §1
# [13] = test system: giant foxtail (Setaria faberii); experiment: Test A preemergence; conditions: Setaria faberi, pre-emergence, 240 h
# Procedure, shortened: as §1
# Kochia (Kochia scoparia) [14] = experiment: Test A preemergence; conditions: Bassia scoparia, pre-emergence, 240 h
# Procedure, shortened: as §1
# [15] = test system: ryegrass, Italian (Italian ryegrass, Lolium multiflorum); experiment: Test A preemergence; conditions: Lolium multiflorum, pre-emergence, 240 h
# Procedure, shortened: as §1
# [16] = test system: sedge, umbrella (small-flower umbrella sedge, Cyperus difformis); experiment: Test B flooded paddy test; conditions: Cyperus difformis, Flood, 250 g ai/ha; scale of 0 to 100 where 0 is no effect and 100 is complete control; read-out: Sedge, Umbrella plant response rating
# Procedure, shortened: (§2)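 Percent control, visually estimated after 13–15 d in the greenhouse on a 0–100 basis, compares treated pots with untreated ones; compound was put into paddy water 3 cm above the soil when plants had two leaves.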
# [17] = test system: ducksalad (Heteranthera limosa); experiment: Test B flooded paddy test; conditions: Heteranthera limosa, Flood, 250 g ai/ha; scale of 0 to 100 where 0 is no effect and 100 is complete control; read-out: Ducksalad plant response rating
# Procedure, shortened: as §2
# [18] = test system: barnyardgrass (Echinochloa crus-galli); experiment: Test B flooded paddy test; conditions: Echinochloa crus-galli, Flood, 250 g ai/ha; scale of 0 to 100 where 0 is no effect and 100 is complete control; read-out: Barnyardgrass plant response rating
# Procedure, shortened: as §2
# rice (Oryra sativa) = experiment: Test B flooded paddy test; conditions: Oryza sativa, Flood, 250 g ai/ha; scale of 0 to 100 where 0 is no effect and 100 is complete control; read-out: Rice plant response rating
# Procedure, shortened: as §2
compound,measurement,setting,value
CCOc1cccc([C@H]2CNC(=O)[C@@H]2C(=O)Nc2cccc(F)c2F)c1 [Compound 950],pest or weed control at 125 g/ha,[1],0%
same,pest or weed control at 125 g/ha,[2],0%
same,pest or weed control at 125 g/ha,[3],90%
same,pest or weed control at 125 g/ha,[4],0%
same,pest or weed control at 125 g/ha,[5],0%
same,pest or weed control at 125 g/ha,[6],20%
same,pest or weed control at 125 g/ha,Kochia (Kochia scoparia) [7],0%
same,plant injury at 125 g/ha,[8],0%
same,"Corn plant response rating (crop injury, 0 = no effect, 100 = complete kill) at 125 g/ha",corn (Zea mays),0%
same,pest or weed control at 125 g/ha,[9],20%
same,pest or weed control at 125 g/ha,"[10]; 125 g ai/ha, Preemergence, visual injury rating after approximately 10 d, read-out: Pigweed plant response rating (0 to 100 scale, 0 is no effect, 100 is complete control)",0%
same,pest or weed control at 500 g/ha,"[10]; 500 g ai/ha, preemergence, visual injury rating about 10 d after treatment, 0 to 100 scale (0 no effect, 100 complete control), read-out: Pigweed plant response rating",0%
same,pest or weed control at 125 g/ha,"[11]; 125 g ai/ha, Preemergence, visual injury rating after approximately 10 d, read-out: Ragweed plant response rating (0 to 100 scale, 0 is no effect, 100 is complete control)",0%
same,pest or weed control at 500 g/ha,"[11]; 500 g ai/ha, preemergence, visual injury rating about 10 d after treatment, 0 to 100 scale (0 no effect, 100 complete control), read-out: Ragweed plant response rating",20%
same,pest or weed control at 125 g/ha,"[12]; 125 g ai/ha, Preemergence, visual injury rating after approximately 10 d, read-out: Barnyardgrass plant response rating (0 to 100 scale, 0 is no effect, 100 is complete control)",100%
same,pest or weed control at 500 g/ha,"[12]; 500 g ai/ha, preemergence, visual injury rating about 10 d after treatment, 0 to 100 scale (0 no effect, 100 complete control), read-out: Barnyardgrass plant response rating",100%
same,pest or weed control at 125 g/ha,"[13]; 125 g ai/ha, Preemergence, visual injury rating after approximately 10 d, read-out: Foxtail, Giant plant response rating (0 to 100 scale, 0 is no effect, 100 is complete control)",60%
same,pest or weed control at 500 g/ha,"[13]; 500 g ai/ha, preemergence, visual injury rating about 10 d after treatment, 0 to 100 scale (0 no effect, 100 complete control), read-out: Foxtail, Giant plant response rating",90%
same,pest or weed control at 125 g/ha,"Kochia (Kochia scoparia) [14]; 125 g ai/ha, Preemergence, visual injury rating after approximately 10 d, read-out: Kochia plant response rating (0 to 100 scale, 0 is no effect, 100 is complete control)",50%
same,pest or weed control at 500 g/ha,"Kochia (Kochia scoparia) [14]; 500 g ai/ha, preemergence, visual injury rating about 10 d after treatment, 0 to 100 scale (0 no effect, 100 complete control), read-out: Kochia plant response rating",60%
same,pest or weed control at 125 g/ha,"[15]; 125 g ai/ha, Preemergence, visual injury rating after approximately 10 d, read-out: Ryegrass, Italian plant response rating (0 to 100 scale, 0 is no effect, 100 is complete control)",20%
same,pest or weed control at 500 g/ha,"[15]; 500 g ai/ha, preemergence, visual injury rating about 10 d after treatment, 0 to 100 scale (0 no effect, 100 complete control), read-out: Ryegrass, Italian plant response rating",70%
same,pest or weed control at 250 g/ha,[16],0%
same,pest or weed control at 250 g/ha,[17],95%
same,pest or weed control at 250 g/ha,[18],65%
same,pest or weed control at 250 g/ha,rice (Oryra sativa),0%
